The text below walks through data of article PMC9920749, “In Vitro and In Silico Studies of Neolignans from Magnolia grandiflora L. Seeds against Human Cannabinoids and Opioid Receptors” (Molecules, 2023).

By IC50 is commonly meant the concentration at which inhibition is half-maximal. In general, Ki refers to the dissociation constant of the complex between target and ligand, obtained from inhibition or displacement.

Experiment [1] deals with T1, CB2R (Homo sapiens, UniProt P34972).
T1 construct: expressed in transfected cells; host or cells: HEK293 (ATCC), stably transfected; membrane preparation
T1 sequence (P34972 whole entry): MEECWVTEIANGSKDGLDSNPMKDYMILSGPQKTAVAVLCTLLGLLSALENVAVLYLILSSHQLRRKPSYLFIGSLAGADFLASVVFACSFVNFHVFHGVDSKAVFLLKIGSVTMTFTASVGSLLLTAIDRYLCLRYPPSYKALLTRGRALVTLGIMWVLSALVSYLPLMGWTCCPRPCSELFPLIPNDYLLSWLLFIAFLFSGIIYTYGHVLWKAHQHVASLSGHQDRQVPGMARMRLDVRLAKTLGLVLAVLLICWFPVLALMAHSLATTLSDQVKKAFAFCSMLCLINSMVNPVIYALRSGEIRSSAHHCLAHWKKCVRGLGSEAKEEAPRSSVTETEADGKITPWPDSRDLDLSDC
Nature of the experiment: Competitive radioligand binding assay, [3H]-CP55,940, HEK293 membranes. Conditions: for Cannabinoid Receptors (% Displacement) CB2: 10 μM purified compounds and 2 + 3. As for the experimental part: (§1) Cannabinoid and opioid competitive radioligand binding assays were performed as previously described. Saturation experiments were performed for all the receptors to determine receptor concentration and radioligand dissociation constant (Kd) for the membrane. Percent displacements were evaluated for all the cannabinoid and opioid subtypes with a triplicate of a fixed concentration (10 µg/mL for extracts and fractions, 10 μM for purified compounds). […] Control/test compounds were dissolved in DMSO at 10 μg/mL for extracts and fractions and 10 μM for purified compounds. […] The competitive binding assays were performed using 12 serial dilutions of each compound ranging from 0.002–300 μM (control compounds were serially diluted from 10 μM to 0.06 nM). The cannabinoid assays were incubated for 90 min at 37 °C with gentle agitation. The opioid assays were incubated for 60 min at room temperature. Bound radioligand was collected on GF/C (cannabinoid) or GF/B plates (opioid), washed 10 times with ice-cold 50 mM Tris-HCl (pH 7.4)/0.1% BSA (cannabinoid) or ice-cold 50 mM Tris-HCl (pH 7.4) (opioid). Radiodetection was measured with 50 µL (cannabinoid) or 25 µL (opioid) MicroScint^TM-20 on a TopCount NXT HTS Microplate Scintillation Counter (PerkinElmer, Waltham, MA, USA). The IC50 and Ki values were calculated by a non-linear curve fit model using GraphPad Prizm 5.0 software (GraphPad Software Inc., San Diego, CA, USA). Each compound was tested in triplicate unless stated otherwise.
(§2) Percent displacement was calculated to represent the ability of the samples to displace the radioligand binding for a given cannabinoid or opioid receptor subtype.
(§3) % displacement was calculated as follows: 100− binding of compound−nonspecific binding/specific binding×100

A further experiment concerns the target T2, δ opioid receptor (Homo sapiens, UniProt P41143).
T2 construct: host or cells: HEK293, stably transfected; membrane preparation
The experiment is described as follows: Competitive radioligand binding assay, [3H]-enkephalin (DPDPE), HEK293 membranes. Conditions: 10 μM purified compounds and 2 + 3. The procedure:
(§4) HEK293 cells stably transfected with δ, κ, and μ opioid subtypes were a generous gift from Roth Laboratories (University of North Carolina at Chapel Hill, NC, USA). Opioid cells were maintained as previously described. Membranes were made by washing the cells with cold PBS. The cells were then scraped in cold 50 mM Tris-HCl, pH 7.4 buffer. The solution was centrifuged at 5200× g for 10 min at 4 °C. Next, the supernatant was discarded, and the pellet was washed with more Tris-HCl buffer, homogenized via Sonic Dismembrator (Fisher Scientific, Pittsburgh, PA, USA) and then centrifuged at 24,000× g for 40 min at 4 °C. […] The total membrane protein concentration was measured using a Pierce BCA Protein Assay Kit (Thermo Scientific, Rockford, IL, USA) as per the manufacturer’s protocol.
(§5) Cannabinoid and opioid competitive radioligand binding assays were performed as previously described. […] Percent displacements were evaluated for all the cannabinoid and opioid subtypes with a triplicate of a fixed concentration (10 µg/mL for extracts and fractions, 10 μM for purified compounds). […] Radiodetection was measured with 50 µL (cannabinoid) or 25 µL (opioid) MicroScint^TM-20 on a TopCount NXT HTS Microplate Scintillation Counter (PerkinElmer, Waltham, MA, USA). The IC50 and Ki values were calculated by a non-linear curve fit model using GraphPad Prizm 5.0 software (GraphPad Software Inc., San Diego, CA, USA). […]

The next experiment has as its target T3, κ opioid receptor (Homo sapiens, UniProt P41145).
T3 construct: host or cells: HEK293, stably transfected; membrane preparation
In kind it is binding. Conditions: 10 μM purified compounds and 2 + 3. The procedure: as §4, §5

The next experiment concerns the target T4, µ opioid receptor (Homo sapiens, UniProt P35372).
T4 construct: host or cells: HEK293, stably transfected; membrane preparation
The experiment is described as follows: biochemical. In kind it is binding. Conditions: for Opioid Receptors (% Displacement) µ: 10 μM purified compounds and 2 + 3; for IC50: 2 and 3 run as a singlet; for µ Opioid Receptor Ki ± SEM / Ki: 2 and 3 run as a singlet (no S.E.M.); for Ki: read-out: µ Opioid Receptor Ki ± SEM. The procedure: (§6) HEK293 cells stably transfected with δ, κ, and μ opioid subtypes were a generous gift from Roth Laboratories (University of North Carolina at Chapel Hill, NC, USA). Opioid cells were maintained as previously described. Membranes were made by washing the cells with cold PBS. The cells were then scraped in cold 50 mM Tris-HCl, pH 7.4 buffer. The solution was centrifuged at 5200× g for 10 min at 4 °C. Next, the supernatant was discarded, and the pellet was washed with more Tris-HCl buffer, homogenized via Sonic Dismembrator (Fisher Scientific, Pittsburgh, PA, USA) and then centrifuged at 24,000× g for 40 min at 4 °C. Finally, the pellet was re-suspended in cold 50 mM Tris-HCl buffer, aliquoted into 2 mL vials, and stored at −80 °C. The total membrane protein concentration was measured using a Pierce BCA Protein Assay Kit (Thermo Scientific, Rockford, IL, USA) as per the manufacturer’s protocol.
as §1, §2, §3

Experiment [2] addresses CB2R. Conditions: cited from earlier work.
Experiment [3] concerns CB2R. Details: method as in Schuehly et al. (2011). Conditions: ref Schuehly et al. (2011); cited from earlier work.
For another experiment, the system named is CB1 receptor. The arrangement: method as in PMID 24204944. Conditions: forskolin-induced cAMP; cited from earlier work.
The next experiment deals with CB2 receptor. Details: method as in PMID 24204944. Conditions: forskolin-induced cAMP; cited from earlier work.
In experiment [4] the target is T5, CB1R (Homo sapiens, UniProt P21554).
T5 construct: expressed in transfected cells; host or cells: HEK293 (ATCC), stably transfected; membrane preparation
T5 sequence (P21554 whole entry): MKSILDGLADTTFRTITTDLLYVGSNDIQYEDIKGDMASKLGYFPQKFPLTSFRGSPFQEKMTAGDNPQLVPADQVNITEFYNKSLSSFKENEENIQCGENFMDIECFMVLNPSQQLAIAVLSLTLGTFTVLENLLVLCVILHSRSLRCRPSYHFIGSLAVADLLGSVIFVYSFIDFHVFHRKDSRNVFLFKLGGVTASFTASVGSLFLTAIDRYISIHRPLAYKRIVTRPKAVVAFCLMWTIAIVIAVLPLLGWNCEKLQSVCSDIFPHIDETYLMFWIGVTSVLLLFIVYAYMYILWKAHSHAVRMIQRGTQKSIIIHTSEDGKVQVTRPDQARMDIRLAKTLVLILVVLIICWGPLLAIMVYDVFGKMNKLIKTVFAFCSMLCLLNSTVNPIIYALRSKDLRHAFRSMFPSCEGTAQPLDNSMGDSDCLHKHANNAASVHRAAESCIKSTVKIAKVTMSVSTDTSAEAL
Nature of the experiment: Competitive radioligand binding assay, [3H]-CP55,940, HEK293 membranes. Conditions: for Cannabinoid Receptors (% Displacement) CB1: 10 μM purified compounds and 2 + 3; for IC50: concentration for 50% displacement of 3H-labeled ligand; for Ki: read-out: CB1R Ki ± SEM. The procedure: as §6, §1, §2, §3
In general terms: Loss of bound radioactivity is the signal in a displacement assay; it reports binding, not function.

The target of experiment [5] is CB1R. Conditions: data from the original publication; read-out: CB1R Agonist Ki; cited from earlier work.
Experiment [6] has as its system CB2R. The arrangement: method as in earlier work. Conditions: ref 27 (Rempel et al. 2013); cited from earlier work.
The mark [7] stands for this setting: data from the original publication, read-out: CB2R Agonist Ki.
Where [8] appears, read: concentration for 50% displacement of 3H-labeled ligand, read-out: CB2R IC50.

Where two headings read alike, the source gives them in different places.

T4 sequence (P35372 whole entry): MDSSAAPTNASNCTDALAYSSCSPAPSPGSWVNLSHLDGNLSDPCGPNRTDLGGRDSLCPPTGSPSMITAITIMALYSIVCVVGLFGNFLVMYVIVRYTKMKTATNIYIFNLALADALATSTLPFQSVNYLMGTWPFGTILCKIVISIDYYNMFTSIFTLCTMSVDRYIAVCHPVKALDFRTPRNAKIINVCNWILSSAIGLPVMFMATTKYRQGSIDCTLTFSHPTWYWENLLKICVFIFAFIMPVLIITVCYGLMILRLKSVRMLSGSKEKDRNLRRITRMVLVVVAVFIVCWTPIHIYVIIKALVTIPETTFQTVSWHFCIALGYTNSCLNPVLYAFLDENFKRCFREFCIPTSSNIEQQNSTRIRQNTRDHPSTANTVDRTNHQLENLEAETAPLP
T2 sequence (P41143 whole entry): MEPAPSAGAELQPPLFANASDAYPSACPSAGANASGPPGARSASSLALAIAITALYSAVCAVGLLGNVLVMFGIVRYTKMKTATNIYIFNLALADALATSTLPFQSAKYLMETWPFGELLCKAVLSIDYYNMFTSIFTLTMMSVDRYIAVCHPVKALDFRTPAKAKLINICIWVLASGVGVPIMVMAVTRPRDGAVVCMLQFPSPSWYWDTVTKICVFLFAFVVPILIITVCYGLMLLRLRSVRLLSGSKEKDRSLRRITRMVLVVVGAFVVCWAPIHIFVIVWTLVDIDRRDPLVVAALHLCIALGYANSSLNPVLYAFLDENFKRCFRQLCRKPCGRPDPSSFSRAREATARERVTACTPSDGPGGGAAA
T3 sequence (P41145 whole entry): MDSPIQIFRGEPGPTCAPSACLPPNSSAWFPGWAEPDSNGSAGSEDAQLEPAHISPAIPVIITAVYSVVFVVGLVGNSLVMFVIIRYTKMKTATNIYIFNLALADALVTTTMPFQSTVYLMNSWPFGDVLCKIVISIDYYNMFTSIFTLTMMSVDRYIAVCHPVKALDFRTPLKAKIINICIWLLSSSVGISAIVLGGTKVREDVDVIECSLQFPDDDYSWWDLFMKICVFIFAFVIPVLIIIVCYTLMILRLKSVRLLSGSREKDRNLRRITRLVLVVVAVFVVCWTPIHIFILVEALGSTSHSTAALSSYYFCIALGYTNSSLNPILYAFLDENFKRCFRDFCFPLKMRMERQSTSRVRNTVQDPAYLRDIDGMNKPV

With `CCCCCCC(C)(C)c1ccc([C@@H]2C[C@H](O)CC[C@H]2CCCO)c(O)c1` [CP55,940, reference compound], on CB2R [1], the “Cannabinoid Receptors (% Displacement) CB2” value turned out to be 101.3%.
Consider `C=CCc1ccc(O)c(-c2ccc(OC)c(CC=C)c2)c1` [Compound 1, 4-O-methylhonokiol], for which, at CB2R [1], the IC50 is 590 nM, the inhibition constant Ki came to 290 ± 20 nM and the “Cannabinoid Receptors (% Displacement) CB2” value turned out to be 82.2%. The “Opioid Receptors (% Displacement) Δ” value at δ opioid receptor was 31.4%. For the same compound, the “Opioid Receptors (% Displacement) κ” value at κ opioid receptor is on record as 18.3%. Also, the “Opioid Receptors (% Displacement) µ” value at µ opioid receptor is 46.2%. Further, the inhibitory constant (Ki) at CB2R [2] (setting [7]) was 43.3 ± 17.1 nM. In the experiment on CB2R [3], the “behavior at CB2R at Gi/o” value is “inverse agonist” and the “behavior at CB2R regarding intracellular Ca2+ [Ca2+]i” value was “full agonist”. In addition, in the experiment with CB1 receptor, the “functional activity at CB1 in cAMP accumulation” value is “agonist”. Further, in the experiment on CB2 receptor, the “functional activity at CB2 in cAMP accumulation” value is reported as “agonist”.
`C=CCc1ccc(O)c(-c2cc(CC=C)ccc2O)c1` [Compound 2, magnolol]: the “Cannabinoid Receptors (% Displacement) CB1” value on CB1R [4] stood at 52.7%. Also, the 50% inhibitory concentration (IC50) amounted to 35600 nM on CB1R [4], 2890 nM on CB2R [1] (setting [8]) and 106000 nM on µ opioid receptor. Besides, the Ki on CB1R [4] was 17800 ± 3430 nM; at CB2R [1] (read-out: CB2R Ki ± SEM) it was 1400 ± 140 nM; on µ opioid receptor, 53100 nM; at CB1R [5], 3150 nM; on CB2R [2] (setting [7]), 1440 nM. Besides, the “Cannabinoid Receptors (% Displacement) CB2” value at CB2R [1] was determined as 74.7%. Also, the “Opioid Receptors (% Displacement) Δ” value at δ opioid receptor turned out to be 7.3%. The “Opioid Receptors (% Displacement) κ” value at κ opioid receptor was 10.7%. Moreover, the “Opioid Receptors (% Displacement) µ” value on µ opioid receptor is given as 52.9%. Besides, the “µ Opioid Receptor Ki ± SEM” value on µ opioid receptor was “low affinity”. For the same compound, the “functional character at CB2R” value with CB2R [6] is reported as “partial CB2R agonists”.
As for `C=CCc1ccc(O)c(-c2ccc(O)c(CC=C)c2)c1` [Compound 3, honokiol], the “Cannabinoid Receptors (% Displacement) CB1” value on CB1R [4] was 50.8%. In addition, the half-maximal inhibitory concentration (IC50) on CB1R [4] was found to be 29100 nM; at CB2R [1] (setting [8]), 3880 nM; on µ opioid receptor, 91100 nM. Besides, the Ki on CB1R [4] was 14500 ± 2470 nM; at CB2R [1] (read-out: CB2R Ki ± SEM), 1940 ± 160 nM; at µ opioid receptor it was 182000 nM; at CB1R [5] it was 6460 nM; at CB2R [2] (setting [7]), 5610 nM. Moreover, the “Cannabinoid Receptors (% Displacement) CB2” value at CB2R [1] was 65.7%. In addition, the “Opioid Receptors (% Displacement) µ” value on µ opioid receptor was 54.2%. Moreover, at µ opioid receptor, the “µ Opioid Receptor Ki ± SEM” value is reported as “low affinity”. The “functional character at CB2R” value in the experiment with CB2R [6] is “CB2R antagonist or inverse agonist”.
In the case of `CCCc1ccc(O)c(-c2cc(CCC)ccc2O)c1` [Compound 4, tetrahydromagnolol], on CB1R [4], the “Cannabinoid Receptors (% Displacement) CB1” value is on record as 30.8%. Besides, the IC50 was 38200 nM at CB1R [4] and 1990 nM at CB2R [1] (setting [8]). Besides, the Ki is 19100 ± 790 nM at CB1R [4]; 990 ± 140 nM at CB2R [1] (read-out: CB2R Ki ± SEM); 2260 nM at CB1R [5]; 416 nM on CB2R [2] (setting [7]); 410 nM on CB2R [2] (ref 27 (Rempel et al. 2013), read-out: CB2R Ki). Also, on CB2R [1], the “Cannabinoid Receptors (% Displacement) CB2” value is listed as 78.2%. Moreover, the “functional character at CB2R” value in the experiment on CB2R [6] is on record as “partial CB2R agonists”.
Take `CCCc1ccc(O)c(-c2cc(CCC)ccc2OC)c1` [Compound 4a, methoxytetrahydromagnolol]: the figures for the inhibitory constant (Ki) on CB1R [5] and at CB2R [2] (setting [7]) were 267 ± 58 nM and 221 ± 57 nM, respectively.
Take `CCCCCc1ccc(O)c(-c2cc(CCC)ccc2O)c1` [Compound 5]: the inhibition constant Ki is 362 ± 113 nM on CB1R [5] and 37.5 ± 7.8 nM at CB2R [2] (setting [7]).
In the case of `CCCCCc1ccc(O)c(-c2cc(CCC)ccc2OC)c1` [Compound 5a], the Ki on CB1R [5] was 17.3 ± 1.4 nM; on CB2R [2] (setting [7]), 31 ± 9.9 nM.
Take `CCCCCCc1ccc(O)c(-c2cc(CCC)ccc2O)c1` [Compound 6]: the inhibitory constant (Ki) at CB1R [5] was 145 ± 48 nM; on CB2R [2] (setting [7]), 29.4 ± 9 nM.
With `CCCCCCc1ccc(O)c(-c2cc(CCC)ccc2OC)c1` [Compound 6a], the figures for the inhibition constant Ki on CB1R [5] and at CB2R [2] (setting [7]) were 9.57 ± 5.43 nM and 23.8 ± 7.1 nM, respectively.
For `CCCCCCc1ccc(OC)c(-c2cc(CCC)ccc2O)c1` [Compound 6b], the inhibition constant Ki was 313 nM on CB1R [5] and 281 ± 101 nM at CB2R [2] (setting [7]).
